Assay results published in ChEMBL document CHEMBL3826929, “Discovery and Preclinical Evaluation of BMS-711939, an Oxybenzylglycine Based PPARα Selective Agonist” (ACS Med Chem Lett, 2016).

Legend:
[1] = molecular target: T1, Peroxisome proliferator-activated receptor alpha (Homo sapiens, UniProt Q07869); assay: Agonist activity at Gal4-tagged human PPAR-alpha expressed in HEK cells by transactivation assay; format: cell-based, HEK293
T1 sequence (Q07869 whole entry): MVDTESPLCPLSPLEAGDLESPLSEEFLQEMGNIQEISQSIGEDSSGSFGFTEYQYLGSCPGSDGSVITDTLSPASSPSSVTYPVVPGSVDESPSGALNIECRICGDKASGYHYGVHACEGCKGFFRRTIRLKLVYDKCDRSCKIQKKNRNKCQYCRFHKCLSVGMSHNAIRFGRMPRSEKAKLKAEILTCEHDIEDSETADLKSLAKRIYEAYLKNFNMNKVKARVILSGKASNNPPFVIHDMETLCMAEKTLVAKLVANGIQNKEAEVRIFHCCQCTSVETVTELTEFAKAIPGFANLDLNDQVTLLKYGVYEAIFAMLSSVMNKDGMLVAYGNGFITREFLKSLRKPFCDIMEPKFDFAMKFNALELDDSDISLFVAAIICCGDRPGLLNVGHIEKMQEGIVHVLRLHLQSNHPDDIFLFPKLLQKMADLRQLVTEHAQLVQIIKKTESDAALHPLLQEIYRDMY

[2] = system: HEK293; assay: Selectivity ratio of EC50 for Gal4-tagged human PPAR-gamma expressed in HEK cells to EC50 for Gal4-tagged human PPAR-alpha expressed in HEK cells; format: cell-based
[3] = molecular target: T2, Peroxisome proliferator-activated receptor alpha (Homo sapiens) (UniProt Q07869); assay: Intrinsic activity at PPAR-alpha (unknown origin) relative to fenofibric acid
T2 sequence (whole entry): T1 sequence (Q07869 whole entry)

[4] = molecular target: T3, Peroxisome proliferator-activated receptor gamma (Homo sapiens, UniProt P37231); assay: Agonist activity at Gal4-tagged human PPAR-gamma expressed in HEK cells by transactivation assay; format: cell-based, HEK293
T3 sequence (P37231 whole entry): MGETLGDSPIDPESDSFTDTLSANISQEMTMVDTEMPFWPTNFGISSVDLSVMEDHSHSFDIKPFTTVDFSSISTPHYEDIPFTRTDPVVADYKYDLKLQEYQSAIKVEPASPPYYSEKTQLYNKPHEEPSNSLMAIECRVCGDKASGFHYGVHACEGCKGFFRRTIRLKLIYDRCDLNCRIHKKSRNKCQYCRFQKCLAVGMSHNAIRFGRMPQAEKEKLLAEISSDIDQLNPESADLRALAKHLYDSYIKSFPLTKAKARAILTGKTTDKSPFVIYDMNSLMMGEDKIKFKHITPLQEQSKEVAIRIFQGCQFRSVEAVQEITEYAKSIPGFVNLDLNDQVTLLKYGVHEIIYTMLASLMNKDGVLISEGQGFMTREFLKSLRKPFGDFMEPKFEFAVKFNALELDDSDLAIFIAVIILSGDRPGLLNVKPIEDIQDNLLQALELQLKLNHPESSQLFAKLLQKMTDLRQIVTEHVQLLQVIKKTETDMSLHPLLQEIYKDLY

[5] = system: Mus musculus; assay: Increase in ApoA1 level in transgenic mouse expressing human ApoA1 at 100 mg/kg administered qd through oral gavage measured after 10 days relative to vehicle-treated control; format: functional
[6] = system: Mus musculus; assay: Increase in HDL cholesterol level in transgenic mouse expressing human ApoA1 at 100 mg/kg administered qd through oral gavage measured after 10 days relative to vehicle control; format: functional
[7] = system: Mus musculus; assay: Decrease in triglyceride level in transgenic mouse expressing human ApoA1 at 100 mg/kg administered qd through oral gavage measured after 10 days relative to vehicle control; format: functional; design: scale not given: the % may be the effect or the level left
[8] = system: Syrian golden hamster; assay: Decrease in liver cholesterol level in high fat-diet fed syrian golden hamster model of dyslipidemia at 10 mg/kg administered qd through oral gavage measured after 21 days by FPLC analysis relative to control; format: functional, Mesocricetus auratus; design: scale not given: the % may be the effect or the level left
[9] = system: Syrian golden hamster; assay: Decrease in plasma LDL cholesterol level in high fat-diet fed syrian golden hamster model of dyslipidemia administered qd through oral gavage measured after 21 days by FPLC analysis relative to control; format: functional, organism-based; settings: Mesocricetus auratus
[10] = system: Syrian golden hamster; assay: Decrease in plasma LDL cholesterol level in high fat-diet fed syrian golden hamster model of dyslipidemia at 3 mg/kg administered qd through oral gavage measured after 21 days by FPLC analysis relative to control; format: functional, Mesocricetus auratus; design: scale not given: the % may be the effect or the level left
[11] = system: Syrian golden hamster; assay: Decrease in plasma LDL cholesterol level in high fat-diet fed syrian golden hamster model of dyslipidemia at 10 mg/kg administered qd through oral gavage measured after 21 days by FPLC analysis relative to control; format: functional, Mesocricetus auratus; design: scale not given: the % may be the effect or the level left
[12] = system: Syrian golden hamster; assay: Decrease in liver triglyceride level in high fat-diet fed syrian golden hamster model of dyslipidemia at 1 mg/kg administered qd through oral gavage measured after 21 days by FPLC analysis relative to control; format: functional, Mesocricetus auratus; design: scale not given: the % may be the effect or the level left
[13] = system: Syrian golden hamster; assay: Increase in liver cholesterol level in high fat-diet fed syrian golden hamster model of dyslipidemia at 1 mg/kg administered qd through oral gavage measured after 21 days by FPLC analysis relative to control; format: functional, Mesocricetus auratus
[14] = system: Syrian golden hamster; assay: Decrease in liver triglyceride level in high fat-diet fed syrian golden hamster model of dyslipidemia at 10 mg/kg administered qd through oral gavage measured after 21 days by FPLC analysis relative to control; format: functional, Mesocricetus auratus; design: scale not given: the % may be the effect or the level left
[15] = system: Syrian golden hamster; assay: Effect on plasma LDL cholesterol level in high fat-diet fed syrian golden hamster model of dyslipidemia at 1 mg/kg administered qd through oral gavage measured after 21 days by FPLC analysis (reference value: 91.7 +/- 8.1 mg/dl); format: functional, Mesocricetus auratus
[16] = system: Syrian golden hamster; assay: Decrease in liver triglyceride level in high fat-diet fed syrian golden hamster model of dyslipidemia at 3 mg/kg administered qd through oral gavage measured after 21 days by FPLC analysis relative to control; format: functional, Mesocricetus auratus; design: scale not given: the % may be the effect or the level left
[17] = system: Syrian golden hamster; assay: Decrease in plasma triglyceride level in high fat-diet fed syrian golden hamster model of dyslipidemia at 1 mg/kg administered qd through oral gavage measured after 21 days by FPLC analysis relative to control; format: functional, Mesocricetus auratus; design: scale not given: the % may be the effect or the level left
[18] = system: Syrian golden hamster; assay: Decrease in liver cholesterol level in high fat-diet fed syrian golden hamster model of dyslipidemia at 1 mg/kg administered qd through oral gavage measured after 21 days by FPLC analysis relative to control; format: functional, Mesocricetus auratus; design: scale not given: the % may be the effect or the level left
[19] = system: Syrian golden hamster; assay: Decrease in plasma triglyceride level in high fat-diet fed syrian golden hamster model of dyslipidemia at 10 mg/kg administered qd through oral gavage measured after 21 days by FPLC analysis relative to control; format: functional, Mesocricetus auratus; design: scale not given: the % may be the effect or the level left
[20] = system: Syrian golden hamster; assay: Decrease in liver triglyceride level in high fat-diet fed syrian golden hamster model of dyslipidemia administered qd through oral gavage measured after 21 days by FPLC analysis; format: functional, organism-based; settings: Mesocricetus auratus
[21] = system: Syrian golden hamster; assay: Decrease in plasma triglyceride level in high fat-diet fed syrian golden hamster model of dyslipidemia at 3 mg/kg administered qd through oral gavage measured after 21 days by FPLC analysis relative to control; format: functional, Mesocricetus auratus; design: scale not given: the % may be the effect or the level left
[22] = system: Syrian golden hamster; assay: Decrease in liver cholesterol level in high fat-diet fed syrian golden hamster model of dyslipidemia at 3 mg/kg administered qd through oral gavage measured after 21 days by FPLC analysis relative to control; format: functional, Mesocricetus auratus; design: scale not given: the % may be the effect or the level left
[23] = molecular target: T3, Peroxisome proliferator-activated receptor gamma; assay: Binding affinity to human GST-tagged PPAR-gamma LBD expressed in Escherichia coli BL21 after 30 mins in presence of fluorescein ligand FLA-A by fluorescence polarization assay
[24] = molecular target: T1, Peroxisome proliferator-activated receptor alpha; assay: Binding affinity to human GST-tagged PPAR-alpha LBD expressed in Escherichia coli BL21 (DE3) PlysS after 30 mins in presence of fluorescein ligand FLA-A by fluorescence polarization assay

Row | SMILES | EC50 [1] | Intrinsic activity [3] | EC50 [4] | Ratio EC50 [2] | further results
1 | COC(=O)N(CC(=O)O)Cc1cc(OCc2nc(-c3ccc(C(F)(F)F)cc3)oc2C)ccc1F | 3.6 nM | > 50% | 2060 nM | 566 | 
2 | COC(=O)N(CC(=O)O)Cc1cc(OCc2nc(-c3ccc(C(C)(C)C)cc3)oc2C)ccc1F | 2.7 nM | > 50% | 414 nM | 154 | 
3 | CC(C)OC(=O)C(C)(C)Oc1ccc(C(=O)c2ccc(Cl)cc2)cc1 [FENOFIBRATE] |  |  |  |  | Activity [5]: 665%; Activity [6]: 88%; Activity [7]: 32.5%
4 | COc1ccc(OC(=O)N(CC(=O)O)Cc2cc(OCc3nc(-c4ccc(Cl)cc4)oc3C)ccc2F)cc1 | 6.8 nM | > 50% | 1090 nM | 160 | 
5 | COC(=O)N(CC(=O)O)Cc1cc(OCc2nc(-c3ccc(S(C)(=O)=O)cc3)oc2C)ccc1F | > 2500 nM | > 50% | > 25000 nM |  | 
6 | COC(=O)N(CC(=O)O)Cc1cccc(OCc2nc(-c3ccc(Cl)cc3)oc2C)c1 |  |  |  |  | Activity [8]: 40.8%; Activity [9]: Dose-dependent effect; Activity [10]: 46%; Activity [11]: 60%; Activity [12]: 6%; Activity [13]: 22%; Activity [14]: 23%; Activity [15]: 89.3 mg/dL; Activity [16]: 17%; Activity [17]: 40%; Activity [18]: -22%; Activity [19]: 77%; Activity [20]: Dose-dependent effect; Activity [21]: 45%; Activity [22]: 15.4%
7 | COC(=O)N(CC(=O)O)Cc1ccc(F)c(OCc2nc(-c3ccc(Cl)cc3)oc2C)c1 | 94 nM | > 50% | 9170 nM | 98 | IC50 [23]: > 15000 nM; IC50 [24]: 1560 nM
8 | COC(=O)N(CC(=O)O)Cc1cc(F)cc(OCc2nc(-c3ccc(Cl)cc3)oc2C)c1 | 18 nM | > 50% | 2820 nM | 157 | IC50 [23]: > 15000 nM; IC50 [24]: 1340 nM
9 | COC(=O)N(CC(=O)O)Cc1cc(OCc2nc(-c3ccccc3)oc2C)ccc1F | 59 nM | > 50% | 8610 nM | 146 | 
10 | COC(=O)N(CC(=O)O)[C@@H](C)c1cccc(OCc2nc(-c3ccc(Cl)cc3)oc2C)c1 | 8.6 nM | > 50% | 2860 nM | 332 | IC50 [23]: > 15000 nM; IC50 [24]: 671 nM
11 | COC(=O)N(CC(=O)O)Cc1cc(OCc2nc(-c3ccc(OC(F)(F)F)cc3)oc2C)ccc1F | 4.3 nM | > 50% | 2380 nM | 556 | 
12 | Cc1ccc(OC(=O)N(CC(=O)O)Cc2cc(OCc3nc(-c4ccc(Cl)cc4)oc3C)ccc2F)cc1 | 5.6 nM | > 50% | 1260 nM | 224 | 

Continued, in another order:

Row | EC50 [1] | Intrinsic activity [3] | EC50 [4] | SMILES | Ratio EC50 [2] | further results
13 | 4 nM | > 50% | 4270 nM | CCOC(=O)N(CC(=O)O)Cc1cc(OCc2nc(-c3ccc(Cl)cc3)oc2C)ccc1F | 1080 | 
14 | 2.3 nM | > 50% | 1500 nM | Cc1oc(-c2ccc(Cl)cc2)nc1COc1ccc(F)c(CN(CC(=O)O)C(=O)OCC(C)C)c1 | 666 | 
15 | 10.6 nM | > 50% | 4380 nM | Cc1oc(-c2ccc(Cl)cc2)nc1COc1ccc(F)c(CN(CC(=O)O)C(=O)OCCCF)c1 | 413 | 
16 | 2.8 nM | > 50% | 1240 nM | CCCCOC(=O)N(CC(=O)O)Cc1cc(OCc2nc(-c3ccc(Cl)cc3)oc2C)ccc1F | 435 | 
17 | 2.8 nM | > 50% | 2180 nM | COC(=O)N(CC(=O)O)Cc1cc(OCc2nc(-c3ccc(C)cc3)oc2C)ccc1F | 787 | 
18 | 3.4 nM | > 50% | 2010 nM | CCCOC(=O)N(CC(=O)O)Cc1cc(OCc2nc(-c3ccc(Cl)cc3)oc2C)ccc1F | 594 | 
19 | 14.5 nM | > 50% | 10000 nM | COC(=O)N(CC(=O)O)Cc1cc(OCc2nc(-c3ccc(F)cc3)oc2C)ccc1F | 691 | 
